Test results reported in ChEMBL document CHEMBL1201862, “PubChem BioAssay data set” (2004).
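96-well plates; 48 h exposure; 5 concentrations. Endpoints by linear interpolation between flanking doses. Not reached: highest tested concentration assigned. GI50 = concentration required for 50% inhibition of growth.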 The source made the active and inactive calls. Cut-off read from the data, not from the text of the source: active = GI50 up to about 1.1 µM and inactive = higher.

What was measured:
Experiment in all cases: NCI-60 cell line screen, 48 h
CAKI-1 = tested on: CAKI-1
UO-31 = tested on: UO-31
SNB-19 = tested on: SNB-19
SN12C = tested on: SN12C
M14 = tested on: M14
RPMI-8226 = tested on: RPMI-8226
HT-29 = tested on: HT-29
UACC-62 = tested on: UACC-62
HOP-62 = tested on: HOP-62
SK-OV-3 = tested on: SK-OV-3
786-0 = tested on: 786-0
HCC 2998 = tested on: HCC 2998
OVCAR-8 = tested on: OVCAR-8
SF-268 = tested on: SF-268
SW-620 = tested on: SW-620
SK-MEL-5 = tested on: SK-MEL-5
RXF 393 = tested on: RXF 393
CCRF-CEM = tested on: CCRF-CEM

SMILES	GI50 (CAKI-1)	GI50 (UO-31)	GI50 (SNB-19)	GI50 (SN12C)	GI50 (M14)	GI50 (RPMI-8226)	GI50 (HT-29)	GI50 (UACC-62)	GI50 (HOP-62)	GI50 (SK-OV-3)	GI50 (786-0)	GI50 (HCC 2998)	GI50 (OVCAR-8)	GI50 (SF-268)	GI50 (SW-620)	GI50 (SK-MEL-5)	GI50 (RXF 393)	GI50 (CCRF-CEM)
Cc1ccc(OCC(=O)N2N=C(c3ccccc3)CC2(O)c2ccccc2)cc1 (centres undefined)	> 100 µM (inactive)	> 100 µM (inactive)	> 100 µM (inactive)	17.3 µM (inactive)	34.4 µM (inactive)	16.6 µM (inactive)	> 10 µM (inactive)	43.4 µM (inactive)	27.8 µM (inactive)	> 100 µM (inactive)	16.4 µM (inactive)	> 100 µM (inactive)	91.2 µM (inactive)	> 100 µM (inactive)	51.6 µM (inactive)			
O=C(NCCOC(=O)CCCCCCCCC(=O)OCCNC(=O)NC(=O)c1cn(Cc2ccccc2)c(=O)[nH]c1=O)NC(=O)c1cn(Cc2ccccc2)c(=O)[nH]c1=O	> 100 µM (inactive)	> 100 µM (inactive)	> 100 µM (inactive)	> 100 µM (inactive)	> 100 µM (inactive)	> 100 µM (inactive)	> 100 µM (inactive)	> 100 µM (inactive)	> 100 µM (inactive)	> 100 µM (inactive)	> 100 µM (inactive)	> 100 µM (inactive)	> 100 µM (inactive)	> 100 µM (inactive)	> 100 µM (inactive)	> 100 µM (inactive)		
COc1ccc2nc3cccc(C(=O)NCCN(C)C)c3nc2c1		2.45 µM (inactive)	2.84 µM (inactive)	1.39 µM (inactive)	2.28 µM (inactive)	0.824 µM (active)	0.632 µM (active)	2.24 µM (inactive)	1.45 µM (inactive)	4.09 µM (inactive)	2.25 µM (inactive)	1.85 µM (inactive)	1.46 µM (inactive)		0.573 µM (active)	2.04 µM (inactive)	1.55 µM (inactive)	
Cc1ccc(NC(=O)c2cc3cc(/N=N/c4ccc(Br)cc4)ccc3oc2=O)cc1	30.5 µM (inactive)		25.9 µM (inactive)	> 100 µM (inactive)	> 10 µM (inactive)	> 100 µM (inactive)	> 100 µM (inactive)		> 10 µM (inactive)	> 100 µM (inactive)	> 100 µM (inactive)	> 100 µM (inactive)		28.2 µM (inactive)	86.9 µM (inactive)	> 100 µM (inactive)	> 100 µM (inactive)	
Nc1nc(=O)n(C2CC(O)C(O)C(CO)O2)cc1F (centres undefined)		> 100 µM (inactive)	> 100 µM (inactive)	> 100 µM (inactive)	> 100 µM (inactive)	> 100 µM (inactive)	> 100 µM (inactive)	> 100 µM (inactive)	> 100 µM (inactive)		> 100 µM (inactive)	> 100 µM (inactive)	> 100 µM (inactive)	> 100 µM (inactive)	> 100 µM (inactive)		> 100 µM (inactive)	> 100 µM (inactive)
N#Cc1ccccc1NC(=O)C(=O)C(C(=O)c1ccccc1-c1ccccc1)C1OC(=O)c2ccccc21 (centres undefined)		> 10 µM (inactive)			15.4 µM (inactive)	11.7 µM (inactive)	33.3 µM (inactive)	16.7 µM (inactive)	11.9 µM (inactive)	41.2 µM (inactive)	14.8 µM (inactive)	15.5 µM (inactive)	20.3 µM (inactive)	14.3 µM (inactive)	29 µM (inactive)	> 100 µM (inactive)	11.6 µM (inactive)	18.4 µM (inactive)
N#Cc1nn(-c2ccc(Cl)cc2)c(=N)c2c(N)n3nc(-c4ccccc4)cc3nc12	1 µM (active)		1 µM (active)	1 µM (active)	1 µM (active)	1 µM (active)	1 µM (active)	1 µM (active)	0.485 µM (active)	0.472 µM (active)	38.5 µM (inactive)	< 0.01 µM (active)	0.64 µM (active)	0.635 µM (active)	> 100 µM (inactive)	0.809 µM (active)	28.2 µM (inactive)	1 µM (active)
CC(C)N(C(=O)C12C3C4C5C3C1(C#N)C5C42)C(C)C (centres undefined)	> 100 µM (inactive)	> 100 µM (inactive)	> 100 µM (inactive)	> 100 µM (inactive)	> 100 µM (inactive)	> 100 µM (inactive)	> 100 µM (inactive)	> 100 µM (inactive)	> 100 µM (inactive)	> 100 µM (inactive)	> 100 µM (inactive)	> 100 µM (inactive)	> 100 µM (inactive)	> 100 µM (inactive)	11.6 µM (inactive)	> 100 µM (inactive)		> 100 µM (inactive)
COc1cc(/C=C2/C(=O)N(C(=O)OC(C)C)C(Cc3cc(OC)c(OC)c(C)c3OC)C(=O)N2Cc2ccccc2)c(OC)c(C)c1OC (centres undefined)	> 100 µM (inactive)	9.06 µM (inactive)		54.8 µM (inactive)	50.9 µM (inactive)	6.58 µM (inactive)	27.9 µM (inactive)	> 100 µM (inactive)	> 100 µM (inactive)	91.2 µM (inactive)	> 100 µM (inactive)	38.4 µM (inactive)	28.2 µM (inactive)	> 100 µM (inactive)	14.8 µM (inactive)	14.4 µM (inactive)	20.4 µM (inactive)	13.1 µM (inactive)
COC(=O)c1ncc2c(=O)[nH]c3ccccc3c2c1C(=O)OC	> 100 µM (inactive)	> 100 µM (inactive)	> 100 µM (inactive)	> 100 µM (inactive)	> 100 µM (inactive)	> 100 µM (inactive)	> 100 µM (inactive)	> 100 µM (inactive)	> 100 µM (inactive)		> 100 µM (inactive)	> 100 µM (inactive)	> 100 µM (inactive)	> 100 µM (inactive)	> 100 µM (inactive)	> 100 µM (inactive)	> 100 µM (inactive)	> 100 µM (inactive)
CCOC(=O)NC(=O)c1cn(CCCOC(=O)CCCCCCCCC(=O)OCCCn2cc(C(=O)NC(=O)OCC)c(=O)[nH]c2=O)c(=O)[nH]c1=O	7.28 µM (inactive)		22.3 µM (inactive)	28.2 µM (inactive)	21.5 µM (inactive)	5.22 µM (inactive)	34.8 µM (inactive)	17.5 µM (inactive)	26 µM (inactive)	40.5 µM (inactive)	15.8 µM (inactive)	10.3 µM (inactive)	23 µM (inactive)		15 µM (inactive)	21.9 µM (inactive)	> 10 µM (inactive)	3.47 µM (inactive)
CC1(C)OC(=O)[C@@](C)([C@H](O)c2ccccc2)O1	46.3 µM (inactive)	> 100 µM (inactive)	> 100 µM (inactive)	> 100 µM (inactive)	> 100 µM (inactive)		> 100 µM (inactive)	78.2 µM (inactive)	> 100 µM (inactive)	> 100 µM (inactive)	> 100 µM (inactive)	71 µM (inactive)	> 100 µM (inactive)	> 100 µM (inactive)	> 100 µM (inactive)	40.1 µM (inactive)	> 100 µM (inactive)	> 100 µM (inactive)
O=C(O)c1ccccc1C1c2ccc(Cl)cc2Oc2cc(Cl)ccc21	> 100 µM (inactive)	> 100 µM (inactive)	> 100 µM (inactive)	> 100 µM (inactive)	> 100 µM (inactive)	> 100 µM (inactive)	> 100 µM (inactive)	> 100 µM (inactive)	> 100 µM (inactive)	> 100 µM (inactive)	> 100 µM (inactive)	> 100 µM (inactive)	> 100 µM (inactive)	> 100 µM (inactive)	> 100 µM (inactive)	> 100 µM (inactive)	> 100 µM (inactive)	> 100 µM (inactive)
CN(C)CC(/C(Cc1ccccc1)=N\NC(=O)C[n+]1ccccc1)c1ccccc1 (centres undefined)	> 100 µM (inactive)	> 100 µM (inactive)	> 100 µM (inactive)	> 100 µM (inactive)	> 100 µM (inactive)		> 100 µM (inactive)	> 100 µM (inactive)	> 100 µM (inactive)	> 100 µM (inactive)	> 100 µM (inactive)	> 100 µM (inactive)	35.1 µM (inactive)	> 100 µM (inactive)		> 100 µM (inactive)	> 100 µM (inactive)	> 100 µM (inactive)
CCOCN1COCN/C1=N/C#N	> 100 µM (inactive)	> 100 µM (inactive)	> 100 µM (inactive)	> 100 µM (inactive)	> 100 µM (inactive)		> 100 µM (inactive)	> 100 µM (inactive)	> 100 µM (inactive)	> 100 µM (inactive)	> 100 µM (inactive)	> 100 µM (inactive)	> 100 µM (inactive)	> 100 µM (inactive)	17.9 µM (inactive)	> 100 µM (inactive)	0.094 µM (active)	
COc1ccc2cc3c4cc(OC)c(OC)cc4ccn3c2c1	> 100 µM (inactive)	> 100 µM (inactive)	> 100 µM (inactive)	> 100 µM (inactive)			> 100 µM (inactive)	> 100 µM (inactive)	> 100 µM (inactive)	> 100 µM (inactive)	> 100 µM (inactive)	> 100 µM (inactive)	> 100 µM (inactive)	> 100 µM (inactive)	> 100 µM (inactive)	> 100 µM (inactive)	> 100 µM (inactive)	> 100 µM (inactive)
Cc1cc(C)c(C(=O)/C=C/c2ccccc2)c(C)c1	36.5 µM (inactive)	52.4 µM (inactive)	28.5 µM (inactive)	14.4 µM (inactive)	19.4 µM (inactive)	29.8 µM (inactive)	30.3 µM (inactive)	31.8 µM (inactive)	34.3 µM (inactive)	64.6 µM (inactive)	27.7 µM (inactive)		15.5 µM (inactive)	20.6 µM (inactive)	23 µM (inactive)	> 100 µM (inactive)	15.8 µM (inactive)	25.4 µM (inactive)
